The values below come from PubChem BioAssay (NCI).

Values joined by “and” are separate entries in the source; they are usually repeats but may differ in a detail not shown here. Equal values may be shown once.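 Exposure lasted 48 hours, with cells grown in 96-well plates and compounds tested at five concentrations. At the GI50, growth is halved. TGI is the concentration that stops growth completely.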 Some results are limits rather than exact numbers.

The subject of the assay is MDA-MB-468 breast. The assay can be described thus: NCI tumour cell line growth inhibition, 48 h.
For `O=C(/C=C/c1ccccn1)c1ccccc1O`, the GI50 was 1.61 µM and the TGI worked out at 3.1 µM.
For `N/C(=N\c1nc2c(Cl)cc(Cl)cc2s1)C(Cl)(Cl)Cl`, in that order: 2.85 µM and 12.3 µM.
For `CCc1ccc(CCC(=O)Nc2ncc(Cc3cc(Cl)ccc3Cl)s2)o1`, in that order: 0.769 µM and 5.97 µM.
As to `CN(C)c1ccc(/C=C(\C#N)c2cc3ccccc3n2C)cc1`, the GI50 is 0.0694 µM and the TGI came to 2.11 µM.
For `Cn1cc(C2=C(c3c4n(c5ccccc35)CC(CN)C4)C(=O)NC2=O)c2ccccc21` (centres undefined), in that order: 2.79 µM and 6.17 µM.
For `CCCCCCCCCCCC1=NC(C)(C)CN1CCO`, in that order: 3.27 µM and 12.8 µM.
In the same order, the values of `Nc1ncnc2c1c(-c1cccc(OCc3ccccc3)c1)cn2C1CC(CN2CCCC2)C1` (centres undefined) are 1.38 µM and 3.14 µM.
As for `CS(=O)(=O)N1CCN(Cc2cc3nc(-c4cccc5[nH]ncc45)nc(N4CCOCC4)c3s2)CC1`, the GI50 is 0.0553 µM and 0.123 µM; the TGI is 0.467 µM and 0.985 µM.
For `O=C1Nc2cc(Cl)ccc2Oc2cc(Oc3ccccc3)ccc21`, the GI50 was 1.85 µM and the TGI amounted to 8.88 µM.
For `CC(C)c1ccc2c(N=Nc3ccc(S(N)(=O)=O)cc3)c(O)[nH]c2c1`, in that order: 7.76 µM and over 25 µM.
For `COc1cc(-c2cc(/C=C/C(=O)c3ccc4c(c3)OCO4)[nH]n2)cc(OC)c1OC`, in that order: 1.4 µM and 2.86 µM.
In the same order, the values of `COc1ccc(-n2c(SCC(=O)Nc3ccc(-c4nc5ccccc5[nH]4)cc3)nc3ccccc3c2=O)cc1` are 1.97 µM and 4.63 µM.
`O=C1[C@H]2Cc3c([nH]c4ccccc34)[C@@H](c3ccc(Br)cc3)N2C(=O)CN1C1CCN(CC2CCCCC2)CC1`: the GI50 is 13.2 µM and the TGI was 27.2 µM.
For `C=C1C(=O)O[C@H]2[C@H]1CC/C(C=Nc1ccc(C(F)(F)F)cc1N)=C\CC[C@@]1(C)O[C@@H]21`, in that order: 3.49 µM and 12.6 µM.
For `C#CC[C@@H]1C[C@]2(C)[C@H]3CC[C@@H]4[C@H]5[C@H](C(=C)C)CC[C@]5(C(=O)O)CC[C@@]4(C)[C@]3(C)CC[C@H]2C(C)(C)[C@H]1O`, in that order: 2.21 µM and 5.29 µM.
On to `C=C1C(=O)O[C@H]2[C@H]1CC/C(COC(=O)/C=C\C(=O)NCc1ccc(Cn3c(=O)sn(-c4ccc(OC)cc4)c3=O)cc1)=C\CC[C@@]1(C)O[C@@H]21`, for which the GI50 was 0.652 µM and the TGI is 1.52 µM.
For `Nc1ccccc1/C=N\Nc1ccccc1`, in that order: 79.7 µM and over 100 µM.
For `CC(C)(C)C(=O)OCOP(=O)(OCOC(=O)C(C)(C)C)C1CCCN(OC(=O)c2ccccc2)C1=O` (centres undefined), in that order: 1.86 µM and 14.1 µM.
On to `COc1cc(C(=O)NC2CCN(C)CC2)ccc1Nc1ncc2c(n1)N(C1CCCC1)CC(F)(F)C(=O)N2C`, for which the GI50 was under 0.01 µM and the TGI was under 0.0427 µM.
In the same order, the values of `Fc1ccc(CNc2c3ccccc3nc3ccccc23)cc1` are 1.91 µM and 4.86 µM.
In the same order, the values of `CCOC(=O)C1=C(N)Oc2c(sc3c(C)cccc23)C1c1ccc(Cl)cc1` (centres undefined) are 3.11 µM and 13.4 µM.
On to `CCCn1cc(C2=C(c3cn(C)c4ccccc34)C(=O)NC2=O)c2ccccc21`, for which the GI50 is 0.429 µM and the TGI was determined as 11.1 µM.
For `O=C(CCCCC(=O)N/N=C\c1ccccc1Cl)N/N=C\c1ccccc1Cl`, in that order: 1.83 µM and 49.5 µM.
In the same order, the values of `Fc1ccc(-c2ncn(C3CCNCC3)c2-c2ccnc(Oc3ccccc3)n2)cc1` are 3.69 µM and 12.2 µM.
In the same order, the values of `COc1ccc(C(=O)Nc2ncc(Cc3ccccc3Cl)s2)cc1` are 0.353 µM and 33 µM.
Take `O=C(CSc1nc2ccc([N+](=O)[O-])cc2[nH]1)Nc1cccc(Cl)c1`: the GI50 was 1.59 µM and the TGI came out at 5.89 µM.
`O=C(c1ccccc1)c1ccc(Cl)c([N+](=O)[O-])c1`: the GI50 is 2.16 µM and the TGI came out at 6.46 µM.
On to `O=C(Nc1ncc(Cc2ccccc2)s1)c1ccc2c(c1)OCCO2`, for which the GI50 is 0.254 µM.
`COC1OCC(OS(=O)(=O)c2ccc(C)cc2)C(OC(=O)c2ccccc2)C1OC(=O)c1ccccc1` (centres undefined): the GI50 was 2.5 µM and the TGI was over 100 µM.
In the same order, the values of `Cc1ccc(Cl)cc1Nc1nc(C(F)(F)F)ccc1C(=O)N/N=C/c1c(Cl)cccc1Cl` are 0.662 µM and 8.47 µM.
In the same order, the values of `C(=N/Nc1ncnc2nc[nH]c12)/c1ccccn1` are 0.0868 µM and 0.441 µM.
In the same order, the values of `O=C1Nc2ccccc2C1(c1ccc(O)c(F)c1)c1ccc(O)c(F)c1` are 0.29 µM and 0.996 µM.
With `COc1ccccc1CNCCCN1C(=O)c2ccc3c4c(ccc(c24)C1=O)C(=O)N(CCCNCCCCNCCCCN)C3=O`, the GI50 was 0.28 µM and the TGI is 1.17 µM.
As to `CCOCCc1c(O)nc(SC)[nH]c1=O`, the GI50 is over 100 µM and the TGI is over 100 µM.
For the molecule `CCCN(CCC)c1ccc(C=O)cc1`, the GI50 is 16.4 µM and the TGI was found to be 53.9 µM.
Regarding `CCOC(=O)c1ccc2c(c1)[n+](=O)c(C(=O)c1ccc3ccccc3c1)c(C(F)(F)F)n2[O-]`, the GI50 was 0.372 µM and the TGI was determined as 1.51 µM.
For `O=C(CCc1nnc(-c2c(Cl)cccc2Cl)o1)c1nc2ccccc2[nH]1`, in that order: 0.797 µM and 12.2 µM.
As to `COc1ccc(Nc2c3c4c(cccc4[nH]c2=O)C(=O)c2ccccc2-3)cc1`, the GI50 was 0.0237 µM.
